Results published in patent publication US20060251597A1, “ANTI-ODOR COMPOSITIONS AND THERAPEUTIC USE” (priority 2005, published 2006).
Where a name gives a salt, the structure may show the parent alone. Read-outs that look alike come from different tables or passages of the source.

How the values were obtained:
[1] = anti-odor test, three-member panel by sniffing: sulfone or organic amine in composition containing water or alcohol (solution, oil-in-water emulsion)
Method: (§1) Initially, a malodor compound such as about 5% by weight was prepared in water solution or in oil-in-water emulsion. A sulfone or organic amine of the present embodiments was added at various concentrations for example, ranging from about 2%, 1%, 0.5% and 0.1% to the formulations containing the malodor substance. The composition containing the malodor substance without a sulfone or organic amine was used as the control.
Methenamine (MW 140) 7.0 g was dissolved in water, and the total volume was 100 ml. This solution contained methenamine 0.5M or 70 mg per ml methenamine.
Piperazine (MW 86) 4.3 g was dissolved in water, and the total volume was 100 ml. This solution contained piperazine 0.5M, or 43 mg per ml piperazine.

[2] = panel sniff tests of solvents, ingredients and amines against thiol malodor (general statements); settings: solvent or ingredient, based on the panel tests
Method: as §1

[3] = anti-odor test, panel by sniffing: N-acetyl-L-cysteine dissolved in a single solvent or liquid ingredient (anhydrous composition); settings: 10% N-acetyl-L-cysteine and 90% solvent or liquid ingredient
Method: An anti-odor test was carried out in an anhydrous solvent according to the following example. In a series of test tubes, 4.5 ml of a solvent was added to a test tube such that each test tube comprised a single solvent. The solvents added to the test tubes included water, ethanol, acetone, n-propanol, isopropyl alcohol, propylene glycol, butylenes glycol, benzyl alcohol, ethoxydiglycol, 2-ethyl-1,3-hexanediol. N-Acetyl-L-cysteine (MW 163) 0.5 g was then added and dissolved in each solvent. The test tubes were warmed slightly to enhance dissolution of N-acetyl-L-cysteine crystals. Each test tube contained 10% N-acetyl-L-cysteine and 90% solvent.
An anti-odor test was carried out in an anhydrous composition according to the following example. In a series of test tubes, 4.5 ml of a liquid ingredient was added to a test tube such that each test tube comprised a single liquid ingredient. The liquid ingredients added to a test tube included ethyl glycolate, ethyl-L-lactate, diethyl tartrate, triethyl citrate, tripropyl citrate, ethyl-DL-mandelate, benzyl N-acetyl-prolinate, ethyl N-acetyl-prolinate, propyl N-acetyl-prolinate. N-Acetyl-L-cysteine (MW 163) 0.5 g was then added and dissolved in each liquid ingredient. The test tubes were warmed slightly to enhance dissolution of N-acetyl-L-cysteine crystals. Each test tube contained 10% N-acetyl-L-cysteine and 90% liquid ingredient. The panel judged the anti-odor effect in each test tube.

[4] = 10% N-acetyl-L-cysteine and 5% anti-odor ingredient in water
[5] = water, N-acetyl-L-cysteine 4% and piperazine 0.43%, pH 3.4
[6] = water, N-acetyl-L-cysteine 4% and piperazine 1.1%, pH 5.6
[7] = water, 4% N-acetyl-L-cysteine and 1% organic amine (cytidine solution pH 4.3)
[8] = water, N-acetyl-L-cysteine 0.25 M and chlorhexidine 0.1 M
[9] = water, N-acetyl-L-cysteine 4% and trizma base 0.61%, pH 3.0
[10] = water, N-acetyl-L-cysteine 4% and trizma base 1.5%, pH 3.5

## O=S(=O)(CCO)CCO [2,2-sulfonyldiethanol]
[1]
  malodor as judged by panel: did not have any malodor

## CCCCCCCCOC(=O)CCCCC(=O)OCCCCCCCC [dioctyl adipate]
[2]
  prevention of malodor produced by a thiol or similar malodor compounds: effectively prevent malodor

## C1CCCCC1 [cyclohexane]
[2]
  prevention of malodor produced by a thiol or similar malodor compounds: effectively prevent malodor

## CCCCCCCCOC(=O)CCCCCCCCC(=O)OCCCCCCCC [dioctyl sebacate]
[2]
  prevention of malodor produced by a thiol or similar malodor compounds: effectively prevent malodor

## CCCCCCCCO [octanol]
[2]
  prevention of malodor produced by a thiol or similar malodor compounds: effectively prevent malodor

## CCCCOCC(C)O (stereo not shown) [butoxypropanol]
[2]
  prevention of malodor produced by a thiol or similar malodor compounds: effectively prevent malodor

## O=S(=O)(c1ccccc1)c1ccccc1 [diphenylsulfone]
[1]; [4]
  malodor as judged by panel: did not have any malodor

## CCCCCCCCOC(=O)c1ccccc1 [octyl benzoate]
[2]
  prevention of malodor produced by a thiol or similar malodor compounds: effectively prevent malodor

## C1CNCCN1 [piperazine, reference compound]
[1]; [5]
  effective in preventing odor: 50%
  malodor as judged by panel: slight malodor ((b) slight malodor (50% effective))
[1]; [6]
  effective in preventing odor: 50%
  malodor as judged by panel: slight malodor ((b) slight malodor (50% effective))

## CCCCOC(=O)CCCCC(=O)OCCCC [dibutyl adipate]
[2]
  prevention of malodor produced by a thiol or similar malodor compounds: effectively prevent malodor

## CCCCOC(=O)C(C)O (stereo not shown) [butyl lactate]
[2]
  prevention of malodor produced by a thiol or similar malodor compounds: effectively prevent malodor

## cycloethoxymethicone
[2]
  prevention of malodor produced by a thiol or similar malodor compounds: effectively prevent malodor

## CCCCCCC(CO)CCCC (stereo not shown) [butyloctanol]
[2]
  prevention of malodor produced by a thiol or similar malodor compounds: effectively prevent malodor

## Nc1cc[nH]c(=O)n1 [cytosine]
[1]; [7]
  effective in preventing malodor: 50%
  malodor as judged by panel: slight malodor ((b) slight malodor (50% effective))

## CCCCO [N-butyl alcohol]
[2]
  prevention of malodor produced by a thiol or similar malodor compounds: effectively prevent malodor

## CC(C)OC(=O)CCCCC(=O)OC(C)C [diisopropyl adipate]
[2]
  prevention of malodor produced by a thiol or similar malodor compounds: effectively prevent malodor

## CC(C)CC(C)(C)C [isooctane]
[2]
  prevention of malodor produced by a thiol or similar malodor compounds: effectively prevent malodor

## CC(C)OC(=O)CCCCCCCCC(=O)OC(C)C [diisopropyl sebacate]
[2]
  prevention of malodor produced by a thiol or similar malodor compounds: effectively prevent malodor

## Cc1cc(S(=O)(=O)c2ccc(O)c(C)c2)ccc1O [4,4′-sulfonyl-bis(2-methylphenol)]
[1]; [4]
  malodor as judged by panel: did not have any malodor

## CCCCCCCC/C=C\CCCCCCCCO [oleyl alcohol]
[2]
  prevention of malodor produced by a thiol or similar malodor compounds: effectively prevent malodor

## CCCCCCCC/C=C\CCCCCCCCOC(=O)C(C)O (stereo not shown) [oleyl lactate]
[2]
  prevention of malodor produced by a thiol or similar malodor compounds: effectively prevent malodor

## CC(C)OC(=O)C(=O)OC(C)C [diisopropyl oxalate]
[2]
  prevention of malodor produced by a thiol or similar malodor compounds: effectively prevent malodor

## COC(=O)CCCCC(=O)OC [dimethyl adipate]
[2]
  prevention of malodor produced by a thiol or similar malodor compounds: effectively prevent malodor

## CC(=O)N1CCC[C@H]1C(=O)OC(C)C [isopropyl N-acetyl-prolinate]
[2]
  prevention of malodor produced by a thiol or similar malodor compounds: effectively prevent malodor

## CCCCOC(C)=O [butyl acetate]
[2]
  prevention of malodor produced by a thiol or similar malodor compounds: effectively prevent malodor

## O=S(=O)(c1ccc(O)cc1)c1ccc(O)cc1 [4,4′-sulfonyldiphenol]
[1]
  malodor as judged by panel: did not have any malodor

## CC(C)=O [acetone]
[3]
  anti-odor effect: 100%

## CC(=O)N[C@@H](CS)C(=O)O [N-Acetyl-L-cysteine, reference compound]
[1]; cream (oil-in-water emulsion), 10% N-acetyl-L-cysteine, no anti-odor ingredient (control)
  malodor as judged by panel: very unpleasant malodor

## CCOC(=O)[C@H](C)O [ethyl-L-lactate]
[3]
  anti-odor effect: 100%

## CCOC(=O)CC(C)=O [ethyl acetoacetate]
[1]; [4]
  malodor as judged by panel: did not have any malodor
[2]
  prevention of malodor produced by a thiol or similar malodor compounds: effectively prevent malodor

## CS(C)(=O)=O [dimethyl sulfone]
[1]; [4]
  malodor as judged by panel: did not have any malodor
[1]; 10% N-acetyl-L-cysteine and 10% dimethyl sulfone in ethanol
  malodor as judged by panel: very strong malodor
[1]; 10% N-acetyl-L-cysteine and 10% sulfone in water
  malodor as judged by panel: did not have any malodor
[2]
  prevention of malodor produced by a thiol or similar malodor compounds: effectively prevent malodor

## CC(C)OC(=O)CC(O)(CC(=O)OC(C)C)C(=O)OC(C)C [triisopropyl citrate]
[2]
  prevention of malodor produced by a thiol or similar malodor compounds: effectively prevent malodor

## COCCOCCOC [dimethoxydiglycol]
[2]
  prevention of malodor produced by a thiol or similar malodor compounds: effectively prevent malodor

## CC(=O)OC(C)C [isopropyl acetate]
[2]
  prevention of malodor produced by a thiol or similar malodor compounds: effectively prevent malodor

## CCCOC(=O)CCCCC(=O)OCCC [dipropyl adipate]
[2]
  prevention of malodor produced by a thiol or similar malodor compounds: effectively prevent malodor

## Nc1nc2c(ncn2[C@@H]2O[C@H](CO)[C@@H](O)[C@H]2O)c(=O)[nH]1 [guanosine]
[1]; [7]
  effective in preventing malodor: 50%
  malodor as judged by panel: slight malodor ((b) slight malodor (50% effective))

## Nc1ncnc2nc[nH]c12 [adenine]
[1]; [7]
  effective in preventing malodor: 50%
  malodor as judged by panel: slight malodor ((b) slight malodor (50% effective))

## CC(C)COC(=O)CCCCC(=O)OCC(C)C [diisobutyl adipate]
[2]
  prevention of malodor produced by a thiol or similar malodor compounds: effectively prevent malodor

## Nc1nc2nc[nH]c2c(=O)[nH]1 [guanine]
[1]; [7]
  effective in preventing malodor: 50%
  malodor as judged by panel: slight malodor ((b) slight malodor (50% effective))

## CCCCOCCOCCO [butoxydiglycol]
[2]
  prevention of malodor produced by a thiol or similar malodor compounds: effectively prevent malodor

## CCOCCO [ethoxyethanol]
[2]
  prevention of malodor produced by a thiol or similar malodor compounds: effectively prevent malodor

## CCOC(=O)C(C)O (stereo not shown) [ethyl lactate]
[2]
  prevention of malodor produced by a thiol or similar malodor compounds: effectively prevent malodor

## CCCCCCCCCCCCCC(=O)OC(C)C [isopropyl myristate]
[2]
  prevention of malodor produced by a thiol or similar malodor compounds: effectively prevent malodor

## CCCCCCCCCCCCCCCCCC [octadecane]
[2]
  prevention of malodor produced by a thiol or similar malodor compounds: effectively prevent malodor

## [H]/N=C(\N/C(=N/[H])NCCCCCCNC(=N)NC(=N)Nc1ccc(Cl)cc1)Nc1ccc(Cl)cc1 [chlorhexidine base, chlorhexidine, reference compound]
[1]; [8]
  effective in preventing odor: 50%
  malodor as judged by panel: slight malodor ((b) slight malodor (50% effective))

## tris(hydroxymethyl)aminomethane [trizma base]
[1]; [9]
  effective in preventing odor: 50%
  malodor as judged by panel: slight malodor ((b) slight malodor (50% effective))
[1]; [10]
  effective in preventing odor: 50%
  malodor as judged by panel: slight malodor ((b) slight malodor (50% effective))

## COC(=O)c1ccc(S(=O)(=O)c2ccc(C(=O)OC)cc2)cc1 [4,4′-sulfonyl-bis(methylbenzoate)]
[1]; [4]
  malodor as judged by panel: did not have any malodor

## C1N2CN3CN1CN(C2)C3 [methenamine, reference compound]
[1]; N-acetyl-L-cysteine 2% in oil-in-water emulsion
  concentration that can completely eliminate the malodor: ≥ 0.1%
[1]; cream (oil-in-water emulsion), 10% N-acetyl-L-cysteine and 3% methenamine
  malodor as judged by panel: did not have any malodor
[1]; water, N-acetyl-L-cysteine 4% and methenamine 0.7%, pH 3.9
  malodor as judged by panel: did not have any malodor
[1]; water, N-acetyl-L-cysteine 4% and methenamine 1.8%, pH 5.2
  malodor as judged by panel: did not have any malodor

## cyclomethicone
[2]
  prevention of malodor produced by a thiol or similar malodor compounds: effectively prevent malodor
